The values that follow come from patent US20100311965A1, “2-AMINOQUINAZOLINE DERIVATIVE” (CARNA BIOSCIENCES INC., priority 2007, published 2010).

In the first assay the target is T1, Syk kinase (Homo sapiens, UniProt P43405).
T1 construct: purchased Carna Biosciences Inc. (Kobe) 08-176
Description: Kinase activity, mobility shift assay (MSA), Syk. The following applies: read-out: inhibitory activity against Syk kinase. It is filed as biochemical. On the procedure: (§1) A test compound was dissolved in DMSO to obtain a 10 mM test compound solution, which was stored in a dark place at −20° C. until measurement. When bioactivity (kinase activity) is measured, a test compound solution is diluted with DMSO so that the concentration becomes 100 times higher than […], and then diluted 25 times (DMSO concentration is 4%) with an assay buffer described hereinafter.
(§2) Products manufactured by Carna Biosciences Inc. (Kobe) used as protein kinases (recombinant human kinases) in the test are as follows:
(§3) SYK (product number: 08-176), JAK3 (product number: 08-046), FLT3 (product number: 08-154), PDGFRα (PDGFRA) (product number: 08-157), TRKA (NTRK1) (product number: 08-186), KDR (product number: 08-191), CDK2/cycA (product number: 04-103), and AurA (AURKA) (product number: 05-101).
(§4) Kinase activity was measured by a mobility shift assay (MSA) method using QuickScout Screening Assist™ MSA (commercially available kit, manufactured by Carna Biosciences Inc.)
(§5) 5 μl of a test compound solution (the concentration is 4 times of the final concentration) dissolved or suspended in an assay buffer [20 mM HEPES, 0.01% Triton™ X-100, 1 mM dithiothreitol, pH 7.5] or 5 μl of a solvent (4% DMSO-assay buffer) was charged in a 384 well plate made of polypropylene (product number 781280, manufactured by Greiner Bio-One Co., Ltd.). Then, 5 μl of ATP/substrate/metal solution of QuickScout Screening Assist MSA was added. Furthermore, 10 μl of a kinase solution diluted with assay buffer was added and the reaction was initiated. However, only assay buffer (10 μl) was added to blank. The concentration of kinase and reaction conditions were controlled in accordance with the protocol of QuickScout Screening Assist MSA. Then, the reaction was terminated by adding 60 μl of termination buffer of QuickScout Screening Assist MSA and the amount of a substrate (S) and a phosphorylated substrate (P) in the reaction solution were determined in accordance with the protocol of QuickScout Screening Assist MSA using LabChip3000 (manufactured by Caliper Life Sciences Co., MA, USA), and also inhibition of the test compound at a concentration of 0.01, 0.1 and 1 μM was measured, respectively. The amounts of S and P were expressed by the height of each separated peak. Inhibition (%) of the test compound was calculated in accordance with the following equation:
(§6) Inhibition (%)=(1−(C−A)/(B−A))×100
(§7) where A denotes blank, B denotes a solvent and C denotes P/(P+S) of a well of the compound.
As to `Cc1cc(Nc2ncc3ccc(NCCO)c(C)c3n2)cc2[nH]ncc12` [Example 109, 2-[2-(4-methyl-1H-indazol-6-ylamino)-8-methylquinazolin-7-ylamino]ethanol], the inhibition at 0.1 µM was ≥ 50%. On to `Cc1c(F)ccc2cnc(Nc3cc(N)c4nc[nH]c4c3)nc12` [Example 123, 7-fluoro-8-methyl-N-(4-amino-1H-benzo[d]imidazol-6-yl)quinazoline-2-amine], for which the inhibition at 0.1 µM was ≥ 50%. The same measure, in the same setting: to `Cc1c(NCCO)ccc2cnc(Nc3ccc4cn[nH]c4c3)nc12` [Example 73, 2-[2-(1H-indazol-6-ylamino)-8-methylquinazolin-7-ylamino]ethanol] belongs ≥ 50%; to `Cc1n[nH]c2cc(Nc3ncc4ccc(N5CCC(CO)CC5)c(C)c4n3)ccc12` [Example 94, {1-[2-(3-methyl-1H-indazol-6-ylamino)-8-methylquinazolin-7-yl]piperidin-4-yl}methanol], ≥ 50%; to `Cc1cc(Nc2ncc3cccc(C)c3n2)cc2[nH]ncc12` [Example 37, 8-methyl-N-(4-methyl-1H-indazol-6-yl)-quinazoline-2-amine], ≥ 50%. Turning to `Cc1cccc2cnc(Nc3cc(N)c4cn[nH]c4c3)nc12` [Example 52, 8-methyl-N-(4-amino-1H-indazol-6-yl)quinazoline-2-amine], the inhibition at 0.1 µM is ≥ 50%. Same read-out and setting: the value for `Cc1c(N)ccc2cnc(Nc3ccc4cn[nH]c4c3)nc12` [Example 74, 7-amino-N-(1H-indazol-6-yl)-8-methylquinazoline-2-amine] was ≥ 50%; that for `COc1ccc2cnc(Nc3ccc4c(C)n[nH]c4c3)nc2c1C` [Example 96, N-(3-methyl-1H-indazol-6-yl)-7-methoxy-8-methylquinazoline-2-amine] was ≥ 50%; that for `COc1ccc2cnc(Nc3cc(C)c4cn[nH]c4c3)nc2c1C` [Example 97, N-(4-methyl-1H-indazol-6-yl)-7-methoxy-8-methylquinazoline-2-amine] was ≥ 50%.

For `Cc1cccc2cnc(Nc3cc(NC(=O)NCCO)c4cn[nH]c4c3)nc12` [Example 98, 1-(2-hydroxyethyl)-3-[6-(8-methylquinazolin-2-ylamino)-1H-indazol-4-yl]urea], the inhibition at 0.1 µM is ≥ 50%. Same read-out and setting: the value for `Cc1n[nH]c2cc(Nc3ncc4cccc(C)c4n3)ccc12` [Example 34, 8-methyl-N-(3-methyl-1H-indazol-6-yl)-quinazoline-2-amine] was ≥ 50%; that for `Cc1c(N2CCC(CO)CC2)ccc2cnc(Nc3ccc4cn[nH]c4c3)nc12` [Example 84, {1-[2-(1H-indazol-6-ylamino)-8-methylquinazolin-7-yl]piperidin-4-yl}methanol] was ≥ 50%; that for `Cc1c(N2CCC(CO)CC2)ccc2cnc(Nc3cc(N)c4cn[nH]c4c3)nc12` [Example 101, {1-[2-(4-amino-1H-indazol-6-ylamino)-8-methylquinazolin-7-yl]piperidin-4-yl}methanol] was ≥ 50%. As for `Cc1c(NCCO)ccc2cnc(Nc3cc(N)c4cn[nH]c4c3)nc12` [Example 124], the inhibition at 0.1 µM was ≥ 50%. Turning to `Cc1c(O)ccc2cnc(Nc3ccc4cn[nH]c4c3)nc12` [Example 48, 7-hydroxy-N-(1H-indazol-6-yl)-8-methylquinazoline-2-amine], the inhibition at 0.1 µM is ≥ 50%. Turning to `Cc1c(F)ccc2cnc(Nc3cc(N)c4cn[nH]c4c3)nc12` [Example 99, 7-fluoro-N-(4-amino-1H-indazol-6-yl)-8-methylquinazoline-2-amine], the inhibition at 0.1 µM is ≥ 50%.

As to `Cc1cccc2cnc(Nc3ccc4[nH]nnc4c3)nc12` [Example 2, N-(1H-benzo[d][1,2,3]triazol-5-yl)-8-methylquinazoline-2-amine], the inhibition at 0.1 µM is ≥ 50%. With `COc1ccc2cnc(Nc3cc(N)c4cn[nH]c4c3)nc2c1C` [Example 102, N-(4-amino-1H-indazol-6-yl)-7-methoxy-8-methylquinazoline-2-amine], the inhibition at 0.1 µM was ≥ 50%. Regarding `Cc1ccc(Nc2ncc3cccc(C)c3n2)cc1O` [Example 29, 5-(8-methylquinazolin-2-ylamino)-2-methylphenol], the inhibition at 0.1 µM is ≥ 50%.

`Cc1cccc2cnc(Nc3ccc4cn[nH]c4c3)nc12` [Example 1, N-(1H-indazol-6-yl)-8-methylquinazoline-2-amine]: the inhibition at 0.1 µM is ≥ 50%.

For the next assay, the target named is T2, Flt3 kinase (Homo sapiens, UniProt P36888).
T2 construct: purchased Carna Biosciences Inc. (Kobe) 08-154
T2 sequence (P36888 27-993): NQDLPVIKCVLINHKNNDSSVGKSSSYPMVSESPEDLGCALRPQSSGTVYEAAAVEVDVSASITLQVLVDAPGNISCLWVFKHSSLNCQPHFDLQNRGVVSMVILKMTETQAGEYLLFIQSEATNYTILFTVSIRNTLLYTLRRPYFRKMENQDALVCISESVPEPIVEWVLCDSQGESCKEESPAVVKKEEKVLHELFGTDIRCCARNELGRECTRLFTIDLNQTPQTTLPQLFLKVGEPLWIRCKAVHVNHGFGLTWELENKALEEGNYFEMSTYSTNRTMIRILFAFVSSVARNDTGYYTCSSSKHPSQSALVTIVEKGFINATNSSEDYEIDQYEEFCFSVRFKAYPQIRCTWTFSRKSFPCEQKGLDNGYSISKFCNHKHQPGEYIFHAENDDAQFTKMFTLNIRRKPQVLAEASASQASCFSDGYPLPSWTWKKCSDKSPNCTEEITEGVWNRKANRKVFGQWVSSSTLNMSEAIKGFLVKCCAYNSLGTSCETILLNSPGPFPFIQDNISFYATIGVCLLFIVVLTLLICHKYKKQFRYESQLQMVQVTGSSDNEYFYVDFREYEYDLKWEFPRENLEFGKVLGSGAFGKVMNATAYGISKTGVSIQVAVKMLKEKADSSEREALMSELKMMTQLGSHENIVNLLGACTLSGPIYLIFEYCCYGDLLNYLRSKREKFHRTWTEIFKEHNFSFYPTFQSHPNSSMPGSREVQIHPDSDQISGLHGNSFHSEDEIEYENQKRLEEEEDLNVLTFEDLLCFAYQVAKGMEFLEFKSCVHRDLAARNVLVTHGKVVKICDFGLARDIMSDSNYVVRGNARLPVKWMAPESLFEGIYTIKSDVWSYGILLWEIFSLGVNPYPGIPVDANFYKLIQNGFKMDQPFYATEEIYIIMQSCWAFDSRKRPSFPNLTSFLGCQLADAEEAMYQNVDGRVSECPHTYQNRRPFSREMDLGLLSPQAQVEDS
Description: Kinase activity, mobility shift assay (MSA), Flt3. The format is biochemical. The following applies: at 0.01 μM; read-out: inhibitory activity against Flt3 kinase. How it is done: as §1, §2, §3, §4, §5, §6, §7
For `Clc1cccc2cnc(Nc3ccc4cn[nH]c4c3)nc12` [Example 32, 8-chloro-N-(1H-indazol-6-yl)quinazoline-2-amine], the inhibition at 0.01 µM was ≥ 50%. For `Cc1cccc2cnc(Nc3ccc4c(c3)NC(=O)CO4)nc12` [Example 8, 6-(8-methylquinazolin-2-ylamino)-2H-benzo[b][1,4]oxazin-3(4H)-one], the inhibition at 0.01 µM was ≥ 50%. Take `CC(=O)Nc1cccc(Nc2ncc3cccc(C)c3n2)c1` [Example 11, N-(3-(8-methylquinazolin-2-ylamino)phenyl)acetamide]: the inhibition at 0.01 µM is ≥ 50%.

The same assay, now with this note: at 0.1 μM; read-out: inhibitory activity against Flt3 kinase.
On to `Cc1cccc2cnc(Nc3ccc4c(c3)OCO4)nc12` [Example 6, N-(benzo[d][1,3]dioxol-5-yl)-8-methylquinazoline-2-amine], for which the inhibition at 0.1 µM is ≥ 50%. On to `Cc1cccc2cnc(Nc3ccc4c(c3)OCCO4)nc12` [Example 7, N-(2,3-dihydrobenzo[b][1,4]dioxin-6-yl)-8-methylquinazoline-2-amine], for which the inhibition at 0.1 µM is ≥ 50%.

The next assay has as its system Rat basophilic cells RBL-2H3. Nature of the assay: Action against IgE-induced degranulation (β-hexosaminidase release). It is filed as cell-based. The following applies: RBL-2H3 cells, anti-DNP-IgE / DNP-BSA, read-out: inhibitory activity against IgE-induced degranulation. On the procedure: An inhibitory action against SYK was evaluated by an inhibitory action against degranulation of basophils induced by IgE. Rat basophilic cells RBL-2H3 were incubated with an anti-DNP-IgE antibody (1 μg/mL, Zymed) overnight. After washing cells twice with HBSS, an antigen DNP-BSA (1 μg/mL, LSL) was added, followed by incubation for 30 minutes. The supernatant was taken and an activity of β-hexosaminidase in the solution isolated by degranulation was measured using p-nitrophenyl-N-β-D-glucosaminide as a substrate. Using an absorbance meter (Spectra MAX Pro, Molecular Devices), each absorbance at 405 nm and 570 nm of the solution was measured and an increase in the amount was taken as an enzyme activity. 10 minutes before the addition of an antigen, a test material and a solvent (0.1% DMSO) were added to cells. Inhibition rate (%) against degranulation was calculated by the following equation.
Inhibition rate (%)=(1−(A−C)/(B−C))×100
where A denotes an increase in absorbance of a test material group, B denotes an increase in absorbance of a solvent group, and C denotes an increase in absorbance of a solvent group which is not stimulated by an antigen.
For `CCOC(=O)NCc1cc(Nc2ncc3cccc(C)c3n2)cc2[nH]ncc12` [Example 80, Ethyl [6-(8-methylquinazolin-2-ylamino)-1H-indazol-4-yl]methylcarbamate], the inhibition at 0.05 µM is ≥ 50%.
